ChEMBL document CHEMBL1154911, “Structure and biosynthesis of amphidinol 17, a hemolytic compound from Amphidinium carterae” (J Nat Prod, 2010)
Active and inactive are the calls of the source. The rule behind the calls is not given here.

Experiments:
[1] = Toxicity in human RBC assessed as hemolytic activity after 24 hrs by microtiter plate assay; format: cell-based, Erythrocyte; conditions: human red blood cells (RBC)
Aspergillus niger = experiment: Antifungal activity against Aspergillus niger ATCC 16404 by disk diffusion method; format: functional, organism-based
Kluyveromyces marxianus = experiment: Antifungal activity against Candida kefyr ATCC 2512 by disk diffusion method; format: functional, organism-based

With `C=CCC/C=C/C=C/C=C/CC/C=C/[C@@H](O)[C@H](O)C1O[C@@H]([C@H](O)[C@H](O)C(=C)CC[C@@H](O)C2C[C@@H](O)[C@@H](O)[C@H]([C@@H](O)[C@H](O)/C=C(\C)CC[C@H](O)C[C@H](O)[C@H](O)[C@@H](C)C[C@H](O)C(O)C(C)CCC(O)CCCC(O)CCCCCOS(=O)(=O)O)O2)C[C@@H](O)[C@H]1O` (stereo partly drawn) [AMPHIDINOL 17] the EC50 at 24 h [1] was 4.9 µM, the Activity (Aspergillus niger) was “inactive” and the Activity (Kluyveromyces marxianus) was “inactive”.
